The results in this text go back to article PMC2113498 (The Journal of Cell Biology, 1985).

Assay [1] deals with a-toxin binding to the receptor, extracted membranes. Briefly: Inhibition of a-toxin labeling of membranes. Further details: species or system Torpedo californica. Conditions: 10 mM carbamylcholine added to the solutions of the toxin; Fig. 6H.
The subject of assay [2] is mab 264E / AChR. Nature of the assay: Inhibition of binding of mab 264E to AChR by peptides. Further details: species or system Torpedo nobiliana. Conditions: ELISA; tested at concentrations exceeding 36 uM.
Assay [3] relates to mab 274D / AChR. Nature of the assay: Inhibition of binding of mab 274D to AChR by peptides. Further details: species or system Torpedo nobiliana. As to conditions: ELISA; tested at concentrations exceeding 36 uM. (ELISA stands for enzyme-linked immunosorbent assay.)

Regarding `C[N+](C)(C)CCOC(N)=O.[Cl-]` [carbamylcholine], the “labeling of a-toxin sites in presence of competitor” value in assay [1] was “substantially reduced the labeling”. In the case of “Ac-PFEGDPFDYSSDHPRG-OH [Delta-peptide 485-499]”, in assay [2], the “inhibition of binding of mab 264E to AChR” value is “failed to inhibit the binding of either mab”. The “inhibition of binding of mab 274D to AChR” value in assay [3] is “failed to inhibit the binding of either mab”.
